{"source": "paper PMC5295379", "about": "“Acquired savolitinib resistance in non-small cell lung cancer arises via multiple mechanisms that converge on MET-independent mTOR and MYC activation” (Oncotarget, 2016)", "biological_target": "MET (Homo sapiens, UniProt P08581)", "sequence (P08581 25-307)": "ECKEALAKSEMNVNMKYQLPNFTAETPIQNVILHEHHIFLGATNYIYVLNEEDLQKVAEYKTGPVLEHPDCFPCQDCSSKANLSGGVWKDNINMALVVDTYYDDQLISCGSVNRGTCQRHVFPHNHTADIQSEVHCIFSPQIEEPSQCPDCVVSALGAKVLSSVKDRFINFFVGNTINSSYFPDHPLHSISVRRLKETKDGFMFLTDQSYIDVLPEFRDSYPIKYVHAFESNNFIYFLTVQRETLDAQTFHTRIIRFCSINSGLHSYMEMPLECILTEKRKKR", "sequence (P08581 308-1390)": "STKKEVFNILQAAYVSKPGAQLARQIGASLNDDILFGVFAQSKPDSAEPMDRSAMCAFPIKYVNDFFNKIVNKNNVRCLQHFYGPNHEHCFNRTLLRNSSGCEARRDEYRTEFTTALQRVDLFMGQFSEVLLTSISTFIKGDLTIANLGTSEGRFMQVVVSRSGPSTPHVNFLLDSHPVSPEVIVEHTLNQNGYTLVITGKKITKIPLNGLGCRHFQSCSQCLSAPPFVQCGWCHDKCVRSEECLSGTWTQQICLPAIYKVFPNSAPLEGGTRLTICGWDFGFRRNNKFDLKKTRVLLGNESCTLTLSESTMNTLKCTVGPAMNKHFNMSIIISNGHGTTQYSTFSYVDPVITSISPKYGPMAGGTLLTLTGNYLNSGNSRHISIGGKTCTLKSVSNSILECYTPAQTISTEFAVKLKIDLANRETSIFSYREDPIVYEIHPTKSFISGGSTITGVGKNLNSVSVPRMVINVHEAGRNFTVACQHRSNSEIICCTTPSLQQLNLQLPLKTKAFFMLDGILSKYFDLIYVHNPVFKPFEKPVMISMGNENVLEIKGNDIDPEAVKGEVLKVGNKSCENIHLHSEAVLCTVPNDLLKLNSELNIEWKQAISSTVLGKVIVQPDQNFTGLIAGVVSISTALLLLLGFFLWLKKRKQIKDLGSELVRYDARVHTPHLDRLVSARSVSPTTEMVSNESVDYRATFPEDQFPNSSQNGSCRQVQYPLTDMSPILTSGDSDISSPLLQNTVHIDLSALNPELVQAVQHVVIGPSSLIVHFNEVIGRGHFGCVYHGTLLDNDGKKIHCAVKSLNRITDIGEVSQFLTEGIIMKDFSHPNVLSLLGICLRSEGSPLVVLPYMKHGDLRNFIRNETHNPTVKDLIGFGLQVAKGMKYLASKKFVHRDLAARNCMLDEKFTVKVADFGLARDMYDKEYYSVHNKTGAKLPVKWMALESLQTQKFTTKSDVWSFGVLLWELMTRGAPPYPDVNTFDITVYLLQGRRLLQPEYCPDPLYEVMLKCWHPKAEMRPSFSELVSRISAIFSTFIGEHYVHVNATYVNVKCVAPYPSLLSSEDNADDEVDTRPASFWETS", "test": "pMET (Y1234/[…]) immunoblot densitometry in MET-amplified H1993 and EBC-1 cells, […] h dose response", "format": "cell-based", "note": "pIC50: −log10 of the molar value.", "data": [{"smiles": "C[C@@H](c1ccc2nccn2c1)n1nnc2ncc(-c3cnn(C)c3)nc21", "note": "[savolitinib, (S)-1-(1-(Imidazo[1,2-a]pyridin-6-yl)ethyl)-6-(1-methyl-1H-pyrazol-4-yl)-1H-[1,2, 3]triazolo[4,5-b]pyrazine]", "values": [{"measurement": "pIC50", "value": 8.39}]}]}
